In patent US20190030018A1 (Celgene Corporation, priority 2017, published 2019):
Where two headings read alike, the source gives them in different places.

Columns and labels:
[1] = tested on: IL3 independent JAK2 V617F BaF3 cells; assay: Combination studies with JAK2 inhibitors in engineered BaF3 cells, CellTitre-Glo after 3 days; format: cell-based; conditions: compared to the IL3 dependent lines
Protocol: Everolimus was included as a control. The cell viability was then measured by CellTitre-Glo® after 3 days.

AML cell lines = assay: In vitro combination studies, CellTitre-Glo cell viability (Bliss, Loewe, HSA, CES synergy analysis); conditions: FLT3 and JAK inhibitors in combination with Compound 1 in MOLM-13 and NOMO-1 cell lines
Protocol: where EA and EB represent the effect of each single agent and EAB represents the effect of the combination at a given dose.
All data was analyzed using the CES equation:
In cases where single agent dose response fit a Hill slope, the CES analysis was compared to Loewe, Bliss, and HSA models.

[2] = tested on: stomach cancer cell line GA0087; assay: GA0087 PDX model ex vivo 3D methylcellulose CellTiter-Glo cell viability assay (IC50, matrix combination, Combination Index)
Protocol: (§1) Materials and Methods: The stomach cancer cell line GA0087 was used in this study. […] Culture media was purchased from GIBCO or Sigma, USA.
(§2) Everolimus was obtained from Selleck. Cisplatin was used as a reference drug, and was obtained from Hospira Australia pty Ltd.
(§3) PDX tumor models were maintained at Crownbio HuPrime animal facility. Tumor growth was monitored weekly. Tumor volumes were measured in two dimensions using a caliper, and the volume was expressed in mm^3 using the formula: V=0.5 a×b^2 where a and b are the long and short diameters of the tumor, respectively. • 2. Mouse xenografts at tumor volume around 800 mm^3 were housed with sterile surgical tools and tumor tissue was minced into tiny pieces with scissors in small amount of PBS on a new tissue culture plate. • 3. The cell suspension was filtered through Falcon cell strainer. The nylon mesh was washed 3-5 times with PBS. • 4. The cell suspension was centrifuged at 1000 rpm for 5 minutes and the pellet was washed with PBS and centrifuged again. • 5. Red blood cells were removed using red blood cell lysis buffer. • 6. The cell suspension was centrifuged at 1000 rpm for 5 minutes and the pellet was washed with PBS and centrifuged again. • 7. The cell pallet was re-suspended with appropriate cell culture media for different cells. • 8. Cells were counted with Countstar by trypan blue exclusion.
(§4) Day −1: Cell Plating • 1. The cells were harvested during the logarithmic growth period. The harvested cells were cultured with appropriate cell media and centrifuged at 1000 rpm for 3 minutes. […] (Cell concentration was adjusted according to the data base or density optimization assay). • 3. 3.5 mL of cell suspension was mixed with 6.5 mL of 1% methylcellulose. […] 90 μL cell suspensions were added to 96-well plates according to plate map with final cell density. Two duplicate plates were set up: one for day 0 reading (T0) and the other was cultured in incubator for reading at the end point.
(§5) Day 0: T0 Plate Reading and Compound Treatment • 5.10 μL culture medium was added to T0 plate in each well for T0 reading. • 6.100 μl CellTiter-Glo® Reagent was added to each well. • 7. The contents were mixed for 2 minutes on an orbital shaker to facilitate cell lysis. • 8. The plates were allowed to incubate at room temperature for 10 minutes to stabilize luminescent signal. • 9. A backseal black sticker was placed to the bottom of each plate. • 10. The luminescence was read using EnVision Multi Label Reader. • 11.
(§6) The solutions were stored at −20° C. […] The response score was calculated by normalizing to DMSO control. The combination index (CI) was calculated using Chou and Talalay method, wherein a CI of less than 1 indicates synergy. Cisplatin was used as control in the single compound dose response, but was not included in the combination test.
(§7) After drug incubation, pictures for representative wells were taken using a phase contrast microscope. • 13. 100 μL CellTiter-Glo® Reagent was added to each well. • 14. Contents were mixed for 2 minutes on an orbital shaker to facilitate cell lysis. • 15. The plates were allowed to incubate at room temperature for 10 minutes to stabilize luminescent signal. • 16. Backseal black sticker was placed to the bottom of each plate. • 17. Luminescence was recorded using EnVision Multi Label Reader.
(§8) In order to calculate IC50, a dose-response curve was fitted using nonlinear regression model with a sigmoidal dose response. The formula of surviving rate is shown below, and the IC50 was automatically produced by GraphPad Prism 5.0.
(§9) The surviving rate (%)=(LumTest article−LumMedium control)/(LumNone treated−LumMedium control)×100%.

[3] = as above
Protocol: as §1, §2, §3, §4, §5, §6, §7, §8, §9

MV-4-11 = assay: In vitro combination studies, CellTitre-Glo cell viability; conditions: MV-4-11; in combination with Compound 1
NOMO-1 = assay: as above; conditions: NOMO-1; in combination with Compound 1
KG-1 = assay: as above; conditions: KG-1; in combination with Compound 1
HL-60 = assay: as above; conditions: HL-60; in combination with Compound 1
F-36-P = assay: as above; conditions: F-36-P; in combination with Compound 1
OCI-AML-2 = assay: as above; conditions: OCI-AML-2; in combination with Compound 1
HNT-34 = assay: as above; conditions: HNT-34; in combination with Compound 1
OCT-AML-3 = assay: as above; conditions: OCI-AML-3; in combination with Compound 1
ML-2 = assay: as above; conditions: ML-2; in combination with Compound 1
MOLM-13 = assay: as above; conditions: MOLM-13; in combination with Compound 1

Molecule	single agent sensitivity [1]	Synergy (AML cell lines)	Maximal Inhibition ([2]; GA0087-1st experiment) [%]	Maximal Inhibition ([2]; GA0087-2nd experiment) [%]	IC50 ([3]; read-out: Absolute IC50, GA0087-1st experiment) [µM]	IC50 ([3]; read-out: Absolute IC50, GA0087-2nd experiment) [µM]	IC50 ([3]; read-out: Relative IC50, GA0087-1st experiment) [µM]	IC50 ([3]; read-out: Relative IC50, GA0087-2nd experiment) [µM]	Synergy analysis for combinations with Compound 1 (MV-4-11)	Synergy analysis for combinations with Compound 1 (NOMO-1)	Synergy analysis for combinations with Compound 1 (KG-1)	Synergy analysis for combinations with Compound 1 (HL-60)	Synergy analysis for combinations with Compound 1 (F-36-P)	Synergy analysis for combinations with Compound 1 (OCI-AML-2)	Synergy analysis for combinations with Compound 1 (HNT-34)	Synergy analysis for combinations with Compound 1 (OCT-AML-3)	Synergy analysis for combinations with Compound 1 (ML-2)	Synergy analysis for combinations with Compound 1 (MOLM-13)
N#CCNC(=O)c1ccc(-c2ccnc(Nc3ccc(N4CCOCC4)cc3)n2)cc1 [momelotinib, reference compound]	more sensitive	Yes	–	–	–	–	–	–	–	–	–	–	–	–	–	–	–	–
N.N.[Cl][Pt][Cl] [cisplatin]	–	–	98.73	98.48	3.35	3.53	3.17	3.3	–	–	–	–	–	–	–	–	–	–
CC(C)(C)c1cc(NC(=O)Nc2ccc(-c3cn4c(n3)sc3cc(OCCN5CCOCC5)ccc34)cc2)no1 [quizartinib, reference compound]	–	Yes	–	–	–	–	–	–	–	–	–	–	–	–	–	–	–	–
O=C(Nc1nc2cccc(-c3ccc(CN4CCS(=O)(=O)CC4)cc3)n2n1)C1CC1 [Filgotinib]	–	Yes	–	–	–	–	–	–	–	–	–	–	–	–	–	–	–	–
FC(F)(F)c1ccc(CNc2ccc(Cc3c[nH]c4ncc(Cl)cc34)cn2)cn1 [Pexidartinib]	–	Yes	–	–	–	–	–	–	Yes	No	No	No	No	No	No	No	No	Yes
CC[C@@](C)(Nc1ccnc(-c2c[nH]c3ncccc23)n1)C(=O)NCC(F)(F)F [Decernotinib]	–	Yes	–	–	–	–	–	–	–	–	–	–	–	–	–	–	–	–
C1=C/COCc2cc(ccc2OCCN2CCCC2)Nc2nccc(n2)-c2cccc(c2)COC/1 [pacritinib, reference compound]	–	Yes	–	–	–	–	–	–	–	–	–	–	–	–	–	–	–	–
COc1ccc(-c2ccc3c(N4CCOC[C@@H]4C)nc(N4CCOC[C@@H]4C)nc3n2)cc1CO [AZD8055]	–	–	–	–	–	–	–	–	No	Yes	No	No	Yes	Yes	No	Yes	No	Yes
CC1(COc2ccc3c(c2)ncn3-c2ccc3cccc(N4CCC(N)CC4)c3n2)COC1 [Crenolanib]	–	Yes	–	–	–	–	–	–	Yes	No	No	No	No	No	No	No	No	Yes
C[C@@H]1C[C@H]2[C@@H]3CCC4=CC(=O)C=C[C@]4(C)[C@@]3(F)[C@@H](O)C[C@]2(C)[C@@]1(O)C(=O)CO [Dexamethason]	–	–	–	–	–	–	–	–	No	Yes	No	No	No	No	No	No	No	No
pladienolide B [reference compound]	–	–	–	–	–	–	–	–	Yes	Yes	No	No	Yes	Yes	No	No	No	Yes
C/C=C(/C)C(=O)O[C@H]1C(C)=C2[C@H]([C@@H]1OC(=O)CCCCCCC)[C@@](C)(OC(C)=O)C[C@H](OC(=O)CCC)[C@@]1(O)[C@H]2OC(=O)[C@@]1(C)O [Thapsigargin]	–	–	–	–	–	–	–	–	No	No	No	No	No	No	No	No	No	No
CC(C)[C@]12O[C@H]1[C@@H]1O[C@]13[C@]1(O[C@H]1C[C@H]1C4=C(CC[C@@]13C)C(=O)OC4)[C@@H]2O [Triptolide]	–	–	–	–	–	–	–	–	No	No	No	No	No	No	No	No	No	Yes
COC(=O)C[C@](O)(CCCC(C)(C)O)C(=O)O[C@@H]1C(OC)=C[C@]23CCCN2CCc2cc4c(cc2[C@H]13)OCO4 [Omacetaxine]	–	–	–	–	–	–	–	–	No	No	No	No	No	No	No	No	No	No
Cn1cc(-c2cc(S(C)(=O)=O)ccc2OCC2CC2)c2ccccc2c1=O [Compound A, 4-[2-(cyclopropylmethoxy)-5-(methanesulfonyl)phenyl]-2-methylisoquinolin-1(2H)-one, reference compound]	–	–	–	–	–	–	–	–	No	Yes	No	No	Yes	Yes	No	Yes	Yes	Yes
